Several values for one entry are separate records, joined by “and”; a condition that tells them apart may be missing. Identical values can stand only once. Like-named read-outs stand apart in the source and are kept apart here.
Legend:
turkey β1-AR V230^5.61A = turkey β1-AR V230^5.61A (Meleagris gallopavo, UniProt P07700, V230A); format: cell-based; conditions: for cAMP level: Fig 5c,e source data, V230A; for cAMP, time course: V2305.61A
Method: (§1) CHO cells (transfected with a control empty vector or wild-type or mutant turkey β1-AR) were plated onto six-well plates, and were pre-incubated with culture medium buffered with 0.5 mM IBMX for 30 min at 37 °C[20]. […] After culture medium removal, cells were treated with 0.1 M HCl for 10 minutes at room temperature. After centrifugation, the supernatant was used for cAMP quantification using the Direct Cyclic AMP Enzyme Immunoassay kit (Enzo Life Sciences). […] The cAMP assays were repeated three times, and the data are represented as mean ± SD of the three independent experiments. The analysis was done using the log(agonist) vs. response function of Prism 8 (GraphPad)[20].

turkey β1-AR Q150^ICL2A = turkey β1-AR Q150^ICL2A (Meleagris gallopavo, UniProt P07700, Q150A); format: cell-based; conditions: for cAMP level: Fig 5c,e source data, Q150A
Method: as §1

[1] = CHO, 5 min, read-out: Efficacy (% of max cAMP level)

turkey β1-AR V230^5.61A, sequence (P07700 whole entry V230A): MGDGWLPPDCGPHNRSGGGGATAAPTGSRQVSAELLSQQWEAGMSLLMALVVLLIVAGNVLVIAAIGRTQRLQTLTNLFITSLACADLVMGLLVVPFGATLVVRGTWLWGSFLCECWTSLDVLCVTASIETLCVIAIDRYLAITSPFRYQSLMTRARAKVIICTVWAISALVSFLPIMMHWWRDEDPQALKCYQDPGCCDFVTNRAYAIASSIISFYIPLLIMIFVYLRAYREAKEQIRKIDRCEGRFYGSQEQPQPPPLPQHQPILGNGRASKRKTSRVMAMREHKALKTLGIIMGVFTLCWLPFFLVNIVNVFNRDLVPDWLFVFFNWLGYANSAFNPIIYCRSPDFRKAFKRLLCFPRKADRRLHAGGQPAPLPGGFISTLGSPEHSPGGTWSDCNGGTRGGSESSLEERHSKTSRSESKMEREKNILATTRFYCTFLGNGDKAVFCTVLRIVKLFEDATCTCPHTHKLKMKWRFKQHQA
turkey β1-AR Q150^ICL2A, sequence (P07700 whole entry Q150A): as the sequence (P07700 whole entry V230A) above, with Q150A, A230V counted along it

CC(CCc1ccc(O)cc1)NCCc1ccc(O)c(O)c1 (stereo not shown) [Dobutamine, dobutamine] was tested, and the EC50 (turkey β1-AR V230^5.61A) was 6.17 µM, the Emax (turkey β1-AR V230^5.61A; [1]) was 36 ± 1.1% and the cAMP level (turkey β1-AR V230^5.61A; log[ligand] (M) -3) was 167 and 175 and 168. The cAMP level (turkey β1-AR V230^5.61A; log[ligand] (M) -4) was 164 and 173 and 169, the cAMP level (turkey β1-AR V230^5.61A; log[ligand] (M) -5) was 121 and 131 and 129 and the cAMP level (turkey β1-AR V230^5.61A; log[ligand] (M) -6) was 39 and 44 and 43. For the same compound, the cAMP level (turkey β1-AR V230^5.61A; log[ligand] (M) -7) was 36 and 40 and 38, the cAMP level (turkey β1-AR V230^5.61A; log[ligand] (M) -8) was 35 and 37 and the cAMP level (turkey β1-AR V230^5.61A; log[ligand] (M) -9) was 32 and 37 and 36. For the same compound, the “cAMP, time course” value (turkey β1-AR V230^5.61A; 0 min) was 30 and 28 and 33, the “cAMP, time course” value (turkey β1-AR V230^5.61A; 0.5 min) was 32 and 35 and 38 and the “cAMP, time course” value (turkey β1-AR V230^5.61A; 1 min) was 34 and 37 and 35. For the same compound, the “cAMP, time course” value (turkey β1-AR V230^5.61A; 2 min) was 45 and 41 and 43, the “cAMP, time course” value (turkey β1-AR V230^5.61A; 5 min) was 126 and 122 and 128 and the “cAMP, time course” value (turkey β1-AR V230^5.61A; 10 min) was 106 and 105 and 108. For the same compound, the “cAMP, time course” value (turkey β1-AR V230^5.61A; 15 min) was 61 and 56, the “cAMP, time course” value (turkey β1-AR V230^5.61A; 20 min) was 52 and 50 and 51 and the “cAMP, time course” value (turkey β1-AR V230^5.61A; 25 min) was 46 and 44 and 47. The “cAMP, time course” value (turkey β1-AR V230^5.61A; 30 min) was 53 and 47 and 55, the EC50 (turkey β1-AR Q150^ICL2A) was 3.39 µM and the Emax (turkey β1-AR Q150^ICL2A; [1]) was 44 ± 3.5%. For the same compound, the cAMP level (turkey β1-AR Q150^ICL2A; log[ligand] (M) -3) was 192 and 204 and 207, the cAMP level (turkey β1-AR Q150^ICL2A; log[ligand] (M) -4) was 178 and 195 and 219 and the cAMP level (turkey β1-AR Q150^ICL2A; log[ligand] (M) -5) was 151 and 169 and 177. The cAMP level (turkey β1-AR Q150^ICL2A; log[ligand] (M) -6) was 58 and 69 and 73, the cAMP level (turkey β1-AR Q150^ICL2A; log[ligand] (M) -7) was 36 and 42 and 43 and the cAMP level (turkey β1-AR Q150^ICL2A; log[ligand] (M) -8) was 36 and 40. The cAMP level (turkey β1-AR Q150^ICL2A; log[ligand] (M) -9) was 35 and 37 and 41.
